The assay deals with Acidovorax delafieldii (ATCC #17505). Nature of the assay: Bactericidal properties of silver nanofluids, colony count on NB agar plates. Type of assay: cell-based. As for the experimental part:
The addition of nanostructures to fluids can prevent bacterial growth. The bactericidal properties of spherical silver colloid and silver nanorods was measured and compared with the bactericidal properties of silver nitrate. Lyophilized Acidovorax delafieldii (ATCC #17505) bacterium was reconstituted in Difco Nutrient Broth (NB), streaked onto NB agar plates and incubated for 24 hours at 37° C. A single colony was isolated and used to inoculate an NB culture that was grown to mid-log phase where the visibly cloudy solution has an optical density of 0.3 at a wavelength of 600 nm. 10 μL of this preculture (˜2.3×10^4 CFU/mL) was mixed with 5 mL of NB medium that contained 0.2 mg/mL, 0.02 mg/mL, 2 μg/mL, 0.02 μg/mL, and 0.002 μg/mL concentrations of either silver nitrate (AgNO3), silver colloid, or silver nanorods. […] Viable cells were enumerated by the colony count method on NB agar plates.

Turning to `O=[N+]([O-])[O-].[Ag+]` [AgNO3, silver nitrate], where the note is “28 hours, 37° C.”, the “biocide activity compared with other silver samples” value was “highest biocide activity”. Further, the CFU/mL (Acidovorax delafieldii in NB after 28 hours of incubation at 37° C., sample concentration as in Sample cell (text: 0.2 μg/mL Ag)) is 1.2 × 10^3 CFU/mL.

Values taken from US20070158611A1, “Compositions comprising nanorods and methods of making and using them” (priority 2005, published 2007).
